Experimental data taken from ChEMBL document CHEMBL1949544, “Proteasome inhibitors from Neoboutonia melleri” (J Nat Prod, 2012).

Assays:
DLD-1 [1] = test: Inhibition of proteasome activity in human DLD1 cells expressing 4-ubiquitin luciferase reporter protein assessed increase of luciferase signal at 1 uM after 7 hrs relative to control
DLD-1 [2] = test: Inhibition of proteasome activity in human DLD1 cells expressing 4-ubiquitin luciferase reporter protein assessed increase of luciferase signal at 5 uM after 7 hrs relative to control
DLD-1 [3] = test: Inhibition of proteasome activity in human DLD1 cells expressing 4-ubiquitin luciferase reporter protein assessed increase of luciferase signal at 10 uM after 7 hrs relative to control
DLD-1 [4] = test: Inhibition of proteasome activity in human DLD1 cells expressing 4-ubiquitin luciferase reporter protein assessed increase of luciferase signal at 0.5 uM after 7 hrs relative to control

| Compound | fold change (FC) (DLD-1 [1]) | fold change (FC) (DLD-1 [2]) | fold change (FC) (DLD-1 [3]) | fold change (FC) (DLD-1 [4]) |
| --- | --- | --- | --- | --- |
| C=C1C(C)CO[C@@]12C[C@@H](C)[C@H]1[C@H](C[C@@]3(C)[C@@H]4CC[C@H]5[C@](C)(C(=O)O)[C@@H](O)CC[C@@]56C[C@@]46CC[C@]13C)O2 (some centres not stated) | 1.2 | 1.3 | 1.3 |  |
| C=C(C(=O)C[C@@H](C)[C@H]1[C@@H](OC(C)=O)C[C@@]2(C)[C@@H]3CC[C@H]4[C@](C)(C(=O)O)[C@@H](O)CC[C@@]45C[C@@]35CC[C@]12C)C(C)CO (some centres not stated) | 1 | 1.3 | 2.8 |  |
| C=C(C(=O)C1(O)O[C@H]2C[C@@]3(C)[C@@H]4CC[C@H]5[C@H](C)C(=O)C=C[C@@]56C[C@@]46CC[C@]3(C)[C@H]2[C@@H]1C)[C@@H](C)CO (some centres not stated) | 0.9 | 1 | 2.6 |  |
| C=C(C(=O)[C@H](OC(C)=O)[C@@H](C)[C@H]1[C@@H](OC(C)=O)C[C@@]2(C)[C@@H]3CC[C@H]4[C@H](C)C(=O)CC[C@@]45C[C@@]35CC[C@]12C)[C@@H](C)CO | 0.9 | 45 | 48 |  |
| C=C(C(=O)[C@H](OC(C)=O)[C@@H](C)[C@H]1[C@@H](OC(C)=O)C[C@@]2(C)[C@@H]3CC[C@H]4[C@H](C)C(=O)C=C[C@@]45C[C@@]35CC[C@]12C)[C@H](C)CO | 1.5 | 71 | 60 | 1 |
| C=C(C(=O)[C@H](O)[C@@H](C)[C@H]1[C@@H](OC(C)=O)C[C@@]2(C)[C@@H]3CC[C@H]4[C@H](C)C(=O)CC[C@@]45C[C@@]35CC[C@]12C)[C@@H](C)CO | 1.2 | 10 | 77 |  |
| C=C(C(=O)[C@H](O)[C@@H](C)[C@H]1[C@@H](OC(C)=O)C[C@@]2(C)[C@@H]3C[C@@H](O)[C@H]4[C@H](C)C(=O)C=C[C@@]45C[C@@]35CC[C@]12C)[C@@H](C)CO | 1.1 | 35 |  |  |
| C=C(C(=O)[C@H](OC(C)=O)[C@@H](C)[C@H]1[C@@H](OC(C)=O)C[C@@]2(C)[C@@H]3CC[C@H]4[C@H](C)C(=O)C=C[C@@]45C[C@@]35CC[C@]12CO)[C@@H](C)CO | 1.2 | 12 | 1.1 |  |
| CC(C)=CC(=O)C[C@@H](C)[C@H]1CC[C@@]2(C)[C@@H]3CC[C@H]4[C@](C)(C(=O)O[C@@H]5O[C@@H](C)[C@H](O)[C@@H](O)[C@H]5O)[C@@H](O)CC[C@@]45C[C@@]35CC[C@]12C | 1 | 1 | 1.1 |  |
| C=C(C(=O)[C@H](OC(C)=O)[C@@H](C)[C@H]1[C@@H](OC(C)=O)C[C@@]2(C)[C@@H]3[C@H]4O[C@H]4[C@H]4[C@H](C)C(=O)C=C[C@@]45C[C@@]35CC[C@]12C)[C@@H](C)CO | 2.8 | 72 | 15 |  |
| C=C(C(=O)[C@H](OC(C)=O)[C@@H](C)[C@H]1[C@@H](OC(C)=O)C[C@@]2(C)[C@@H]3C[C@@H](O)[C@H]4[C@H](C)C(=O)C=C[C@@]45C[C@@]35CC[C@]12C)[C@@H](C)CO | 5.1 | 31 |  | 1.2 |
| C=C(C(=O)[C@H](O)[C@@H](C)[C@H]1[C@@H](OC(C)=O)C[C@@]2(C)[C@@H]3CC[C@H]4[C@H](C)C(=O)C=C[C@@]45C[C@@]35CC[C@]12C)[C@@H](C)CO | 45 | 28 | 2.9 | 1.4 |
| C=C(C(=O)[C@H](OC(C)=O)[C@@H](C)[C@H]1[C@@H](OC(C)=O)C[C@@]2(C)[C@@H]3CC[C@H]4[C@H](C)C(=O)C=C[C@]45C[C@]35CC[C@]12C)[C@@H](C)CO | 2 | 84 | 24 | 1.4 |
| C=C(C(=O)[C@H](OC(C)=O)[C@@H](C)[C@H]1[C@@H](OC(C)=O)C[C@@]2(C)[C@@H]3CC[C@H]4[C@H](C)C(=O)C=C[C@@]45C[C@@]35CC[C@]12C)C(C)C | 7.2 | 74 | 19 |  |
| CC(=O)O[C@H]1C[C@@]2(C)[C@@H]3CC[C@H]4[C@H](C)C(=O)C=C[C@@]45C[C@@]35CC[C@]2(C)[C@H]1[C@H](C)C=O | 1.1 | 1.3 | 3 |  |
| C=C(C(=O)[C@H](O)[C@@H](C)[C@H]1[C@@H](OC(C)=O)C[C@@]2(C)[C@@H]3CC[C@H]4[C@H](C)C(=O)C=C[C@@]45C[C@@]35CC[C@]12C)C(C)C | 2.4 | 65 | 20 |  |
| C=C(C(=O)[C@H](OC(C)=O)[C@@H](C)[C@H]1[C@@H](OC(C)=O)C[C@@]2(C)[C@@H]3CC[C@H]4[C@H](C)C(=O)C=C[C@@]45C[C@@]35CC[C@]12C)[C@@H](C)CO | 48 | 37 | 4.4 | 2.1 |
| C=C(C(=O)[C@H](O)[C@@H](C)[C@H]1[C@@H](OC(C)=O)C[C@@]2(C)[C@@H]3CC[C@H]4[C@H](C)C(=O)C[C@H](O)[C@@]45C[C@@]35CC[C@]12C)[C@@H](C)CO | 1.6 | 11 | 74 | 1.3 |
| C=C(C(=O)[C@H](O)[C@@H](C)[C@H]1[C@@H](OC(C)=O)C[C@@]2(C)[C@@H]3CC[C@H]4[C@](C)(C(=O)O)[C@@H](O)CC[C@@]45C[C@@]35CC[C@]12C)C(C)C | 1.2 | 1.3 | 1.8 |  |
| C=C(C(=O)[C@H](OC(C)=O)[C@@H](C)[C@H]1[C@@H](OC(C)=O)C[C@@]2(C)[C@@H]3CC[C@H]4[C@H](C)C(=O)[C@H](O)[C@H]5C[C@]54C3=CC[C@]12C)[C@@H](C)CO | 1.2 | 1.9 | 15 |  |
| CC(=O)O[C@H]1C[C@@]2(C)[C@@H]3CC[C@H]4[C@H](C)C(=O)C=C[C@@]45C[C@@]35CC[C@]2(C)[C@H]1[C@H](C)[C@@H](O)C(=O)C=C(C)C | 1.1 | 5.2 | 53 |  |
| CC(=O)O[C@H]1C[C@@]2(C)[C@@H]3CC[C@H]4[C@H](C)C(=O)C=C[C@@]45C[C@@]35CC[C@]2(C)[C@H]1[C@H](C)[C@@H](OC(C)=O)C(=O)C=C(C)C | 1.1 | 34 | 44 |  |
| C=C(C(=O)[C@H](OC(C)=O)[C@@H](C)[C@H]1[C@@H](OC(C)=O)C[C@@]2(C)[C@@H]3CC[C@H]4[C@H](C)C(=O)C=C[C@@]45C[C@@]35CC[C@]12C)[C@@H](C)COC(C)=O | 12 | 48 |  | 1.1 |
| C=C(C(=O)C[C@@H](C)[C@H]1CC[C@@]2(C)[C@@H]3CC[C@H]4[C@](C)(C(=O)O[C@@H]5O[C@@H](C)[C@H](O)[C@@H](O)[C@H]5O)[C@@H](O)CC[C@@]45C[C@@]35CC[C@]12C)C(C)C | 1.1 | 1 | 1.1 |  |
| C=C(C(=O)[C@H](O)[C@@H](C)[C@H]1[C@@H](OC(C)=O)C[C@@]2(C)[C@@H]3CC[C@H]4[C@H](C)C(=O)C=C[C@]45C[C@]35CC[C@]12C)[C@@H](C)CO | 0.9 | 9.1 |  | 0.9 |
| C=C(C(=O)[C@H](OC(C)=O)[C@@H](C)[C@H]1[C@@H](OC(C)=O)C[C@@]2(C)[C@@H]3CC[C@H]4[C@H](C)C(=O)C=C[C@@]45C[C@@]35CC[C@]12C)[C@@H](C)C=O | 1 | 70 | 31 |  |
